Patent US7476646B1, “Agricultural promoters/active ingredients” (CJB Industries, Inc., priority 2004, dated 2009)

Tests used:
[1] = tested on: fungal and bacterial pathogens; test: Field control trial, plant growth, grower rating, phytotoxicity, overall control; type: in vivo; details: comparison area
Description: This composition was applied to a field to which other treatments had been applied. The conditions under which this field control was studies are summarized below.
Treatment—400 ppm Dicocodimethylammonium chloride+1200 ppm EDTA+400 ppm Citric acid+40 ppm soyamine+3000 ppm soybean oil+180 ppm Tergitol NP-6
The field was visited the day of application for a pre-spray disease rating. Major problems were observed, and minor problems were observed as well. Ratings were made on the major diseases Bacterial Spot, Grey Mold, Blight, and Leaf Spot. The observations and % ratings were also taken for Rhizoctonia, Powdery Mildew, Stem Rot, and Bacterial Speck.
The quat salt treatment was applied at a rate of 1 gallon of the composition/100 gallons of water/acre. This relatively low treatment rate provided some concerns regarding complete coverage due to the low volume of water and bushiness of the plants. Blight and Stem Rot were both located at the lower portion of the plant and concealed by a lot of foliage.
Four plants had been marked on day 1 so that their progress could be tracked both in terms of growth and disease control. All four had grown between 5 and 7 inches in height with a tremendous amount of flowering and new growth present.
The grower gave the Treatment a 4 on a scale of 1 (Poor) to 5 (Perfect), when compared to hydrogen peroxide. H is rating for hydrogen peroxide was 2.5 to 3.

Erwinia carotovora = test: Effect of quat salts on Erwinia carotovora (percent inhibition); type: cell-based
Description: To measure the antibacterial effectiveness of the quat salts, the effect of various salts, at an application rate of 50 ppm, was measured. The data regarding the effectiveness is summarized below:
The effectiveness of lower concentrations of the quat salts at inhibiting Erwinia carotovora infection was also measured, where various additives were also added.

Staphylococcus = details: on Staphylococcus; cited from earlier work
[2] = on contact lenses; cited from earlier work

Compound	Percent Inhibition (Erwinia carotovora; application rate of 50 ppm) [%]	other results
S=C([S-])NCCNC(=S)[S-].[Zn+2] [Dithane, zinc ethylenebis(dithiocarbamate)]		response of diseases in treated area [1]: responding (especially on molds and mildews) but not as rapid and completely
Dicoco dimethyl ammonium chloride	75	Percent Inhibition (Erwinia carotovora; 30 ppm dicoco dimethyl ammonium chloride with additive (level relative to quat)): 40%
Benzalkonium chloride [BAC]		effectiveness relative to other QACs tested (Staphylococcus): about 2.5; effectiveness relative to other QACs [2]: about 6 times
Ditallow dimethyl ammonium chloride	50	
Tallowalkyltrimethyl ammonium chloride	30	
Cocoalkyltrimethyl ammonium chloride	25	
Soyalkyltrimethyl ammonium chloride	35	
